Assay results from PubChem BioAssay (NCI).
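A five-concentration, 48-hour dose response in 96-well plates underlies each endpoint, interpolated linearly between surrounding concentrations. The concentration for full growth arrest is given as TGI.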

Assays:
Test in all cases: growth of human tumour cells (NCI), 48 h
OVCAR-8 ovarian = test system: OVCAR-8 ovarian
T-47D breast = test system: T-47D breast
HCT-116 colon = test system: HCT-116 colon
COLO 205 colon = test system: COLO 205 colon
DU-145 prostate = test system: DU-145 prostate
MALME-3M melanoma = test system: MALME-3M melanoma
UO-31 renal = test system: UO-31 renal
HOP-62 NSCLC = test system: HOP-62 NSCLC
U251 CNS = test system: U251 CNS
A498 renal = test system: A498 renal
EKVX NSCLC = test system: EKVX NSCLC
RPMI-8226 leukemia = test system: RPMI-8226 leukemia
NCI-H23 lung = test system: NCI-H23 lung
KM12 colon = test system: KM12 colon
SF-295 CNS = test system: SF-295 CNS
MDA-MB-231 breast = test system: MDA-MB-231 breast
SN12C renal = test system: SN12C renal
HS 578T breast = test system: HS 578T breast
TK-10 renal = test system: TK-10 renal
SF-268 CNS = test system: SF-268 CNS
M14 melanoma = test system: M14 melanoma
HT29 colon = test system: HT29 colon
786-0 renal = test system: 786-0 renal
OVCAR-5 ovarian = test system: OVCAR-5 ovarian
SK-MEL-2 melanoma = test system: SK-MEL-2 melanoma
ACHN renal = test system: ACHN renal
SNB-19 CNS = test system: SNB-19 CNS
NCI-H226 lung = test system: NCI-H226 lung
CCRF-CEM leukemia = test system: CCRF-CEM leukemia
OVCAR-4 ovarian = test system: OVCAR-4 ovarian
HOP-92 NSCLC = test system: HOP-92 NSCLC
A549 NSCLC = test system: A549 NSCLC
SK-MEL-28 melanoma = test system: SK-MEL-28 melanoma
UACC-62 melanoma = test system: UACC-62 melanoma
BT-549 breast = test system: BT-549 breast
MOLT-4 leukemia = test system: MOLT-4 leukemia
OVCAR-3 ovarian = test system: OVCAR-3 ovarian
NCI-H522 lung = test system: NCI-H522 lung
IGROV1 ovarian = test system: IGROV1 ovarian
HCT-15 colon = test system: HCT-15 colon
PC-3 prostate = test system: PC-3 prostate
NCI/ADR-RES ovarian = test system: NCI/ADR-RES ovarian
LOX IMVI melanoma = test system: LOX IMVI melanoma
HL-60(TB) leukemia = test system: HL-60(TB) leukemia
RXF 393 renal = test system: RXF 393 renal
SW-620 colon = test system: SW-620 colon
SF-539 CNS = test system: SF-539 CNS
MDA-MB-435 = test system: MDA-MB-435
MDA-N = test system: MDA-N
MCF7 breast = test system: MCF7 breast
CAKI-1 renal = test system: CAKI-1 renal
HCC-2998 colon = test system: HCC-2998 colon
UACC-257 melanoma = test system: UACC-257 melanoma
SK-MEL-5 melanoma = test system: SK-MEL-5 melanoma
K-562 leukemia = test system: K-562 leukemia
NCI-H460 lung = test system: NCI-H460 lung
SR leukemia = test system: SR leukemia

Measured: TGI

COC(=O)[C@@H](Nc1ccccc1)[C@@]1(C(=O)OC)SC12c1ccccc1-c1ccccc12
62.5 µM: NCI-H522 lung
not listed: NCI-H460 lung | SR leukemia
> 100 µM: all other assays above

Nc1ncnc2oc(-c3cccs3)nc12
not listed: MALME-3M melanoma | MOLT-4 leukemia | CAKI-1 renal
> 100 µM: all other assays above
